Measured values from ChEMBL document CHEMBL5030562, “Synthesis and antiviral evaluation of cytisine derivatives against dengue virus types 1 and 2” (Bioorg Med Chem Lett, 2021).
The source made the active and inactive calls. The calls are words filed in the database; no cut-off is given here.

System: A549
Experiment: Cytotoxicity against human A549 cells assessed as reduction in cell viability by MTT assay
Assay type: functional
Details: not given

Compound | CC50
Cn1cc(CNc2ccc3n(c2=O)C[C@@H]2C[C@H]3CN3CCCCC23)c(=O)n(C)c1=O (stereo partly specified) | > 50 µM
C=CCN1C[C@H]2C[C@@H](C1)c1ccc(NCc3cn(C)c(=O)n(C)c3=O)c(=O)n1C2 | > 50 µM
C=CCNC(=S)N1C[C@H]2C[C@@H](C1)c1ccc([N+](=O)[O-])c(=O)n1C2 | > 50 µM
CCOC(=O)CNC(=O)Nc1ccc2n(c1=O)C[C@@H]1C[C@H]2CN(C)C1 (single isomer, unassigned) | > 50 µM
CCOC(=O)CNC(=S)Nc1ccc2n(c1=O)C[C@@H]1C[C@H]2CN(C)C1 | > 50 µM
CC(C)NC(=S)Nc1ccc2n(c1=O)C[C@@H]1CC2CN(C)C1 (single isomer, unassigned) | > 50 µM
CN1C[C@H]2C[C@@H](C1)c1ccc(NCc3ccccc3O)c(=O)n1C2 | > 50 µM
COC(=O)CN1C[C@H]2C[C@@H](C1)c1ccc(NCc3cn(C)c(=O)n(C)c3=O)c(=O)n1C2 | > 50 µM
CC(C)NC(=O)Nc1ccc2n(c1=O)C[C@@H]1C[C@H]2CN(C)C1 (single isomer, unassigned) | > 50 µM

System: dengue virus type 2
Experiment: Antiviral activity against DENV2 infected in African green monkey Vero E6 cells assessed as inhibition of virus induced cytopathic effect at 10 uM measured after 96 hrs by immunofluorescent staining based inverted microscopic analysis relative to control
Assay type: functional
Details: Vero C1008

Compound | inhibition at 10 µM
Cn1cc(CNc2ccc3n(c2=O)C[C@@H]2C[C@H]3CN3CCCCC23)c(=O)n(C)c1=O (stereo partly specified) | 53.3%
C=CCN1C[C@H]2C[C@@H](C1)c1ccc(NCc3cn(C)c(=O)n(C)c3=O)c(=O)n1C2 | 43.3%
C=CCNC(=S)N1C[C@H]2C[C@@H](C1)c1ccc([N+](=O)[O-])c(=O)n1C2 | 48.9%
CCOC(=O)CNC(=O)Nc1ccc2n(c1=O)C[C@@H]1C[C@H]2CN(C)C1 (single isomer, unassigned) | 40.3%
CCOC(=O)CNC(=S)Nc1ccc2n(c1=O)C[C@@H]1C[C@H]2CN(C)C1 | 60.9%
CC(C)NC(=S)Nc1ccc2n(c1=O)C[C@@H]1CC2CN(C)C1 (single isomer, unassigned) | 61.4%
CN1C[C@H]2C[C@@H](C1)c1ccc(NCc3ccccc3O)c(=O)n1C2 | 39%
COC(=O)CN1C[C@H]2C[C@@H](C1)c1ccc(NCc3cn(C)c(=O)n(C)c3=O)c(=O)n1C2 | 63.9%
CC(C)NC(=O)Nc1ccc2n(c1=O)C[C@@H]1C[C@H]2CN(C)C1 (single isomer, unassigned) | 19.7%

System: dengue virus type 2
Experiment: Antiviral activity against DENV2 infected in African green monkey Vero E6 cells assessed as reduction in induced cytopathic effect at 10 uM after 96 hrs by immunofluorescent staining based inverted microscopic analysis
Assay type: functional, organism-based
Details: not given

Compound | Activity
Cn1cc(CNc2ccc3n(c2=O)C[C@@H]2C[C@H]3CN3CCCCC23)c(=O)n(C)c1=O (stereo partly specified) | Active
C=CCN1C[C@H]2C[C@@H](C1)c1ccc(NCc3cn(C)c(=O)n(C)c3=O)c(=O)n1C2 | Active
C=CCNC(=S)N1C[C@H]2C[C@@H](C1)c1ccc([N+](=O)[O-])c(=O)n1C2 | Active
CCOC(=O)CNC(=O)Nc1ccc2n(c1=O)C[C@@H]1C[C@H]2CN(C)C1 (single isomer, unassigned) | Active
CCOC(=O)CNC(=S)Nc1ccc2n(c1=O)C[C@@H]1C[C@H]2CN(C)C1 | Active
CC(C)NC(=S)Nc1ccc2n(c1=O)C[C@@H]1CC2CN(C)C1 (single isomer, unassigned) | Active
CN1C[C@H]2C[C@@H](C1)c1ccc(NCc3ccccc3O)c(=O)n1C2 | Active
COC(=O)CN1C[C@H]2C[C@@H](C1)c1ccc(NCc3cn(C)c(=O)n(C)c3=O)c(=O)n1C2 | Active
CC(C)NC(=O)Nc1ccc2n(c1=O)C[C@@H]1C[C@H]2CN(C)C1 (single isomer, unassigned) | Active

System: not listed separately
Experiment: Cytotoxicity against African green monkey Vero E6 cells assessed as reduction in cell viability by MTT assay
Assay type: cell-based, Vero C1008
Details: chlorocebus sabaeus

Compound | CC50
Cn1cc(CNc2ccc3n(c2=O)C[C@@H]2C[C@H]3CN3CCCCC23)c(=O)n(C)c1=O (stereo partly specified) | > 50 µM
C=CCN1C[C@H]2C[C@@H](C1)c1ccc(NCc3cn(C)c(=O)n(C)c3=O)c(=O)n1C2 | > 50 µM
C=CCNC(=S)N1C[C@H]2C[C@@H](C1)c1ccc([N+](=O)[O-])c(=O)n1C2 | > 50 µM
CCOC(=O)CNC(=O)Nc1ccc2n(c1=O)C[C@@H]1C[C@H]2CN(C)C1 (single isomer, unassigned) | > 50 µM
CCOC(=O)CNC(=S)Nc1ccc2n(c1=O)C[C@@H]1C[C@H]2CN(C)C1 | > 50 µM
CC(C)NC(=S)Nc1ccc2n(c1=O)C[C@@H]1CC2CN(C)C1 (single isomer, unassigned) | > 50 µM
CN1C[C@H]2C[C@@H](C1)c1ccc(NCc3ccccc3O)c(=O)n1C2 | > 50 µM
COC(=O)CN1C[C@H]2C[C@@H](C1)c1ccc(NCc3cn(C)c(=O)n(C)c3=O)c(=O)n1C2 | > 50 µM
CC(C)NC(=O)Nc1ccc2n(c1=O)C[C@@H]1C[C@H]2CN(C)C1 (single isomer, unassigned) | > 50 µM
